Measured values taken from patent publication US8232279B2, “Pyrazolopyrimidine derivatives having biological activity on serotonin receptor 5-HT2c” (Korea Institute of Science and Technology, priority 2009, dated 2012).

Each compound was assayed against T1, human recombinant 5-HT2C receptor (Homo sapiens, UniProt P28335) (assay: [3H]Mesulergine binding to serotonin 5-HT2C receptor). Conditions: [3H]Mesulergine (1 nM); membranes from CHO-K1 cell line expressing human recombinant 5-HT2C receptor; 30 min at 37° C.; read-out: Affinity for 5-HT2C receptor (IC50).
T1 construct: expressed in transfected cells
T1 sequence (P28335 33-458): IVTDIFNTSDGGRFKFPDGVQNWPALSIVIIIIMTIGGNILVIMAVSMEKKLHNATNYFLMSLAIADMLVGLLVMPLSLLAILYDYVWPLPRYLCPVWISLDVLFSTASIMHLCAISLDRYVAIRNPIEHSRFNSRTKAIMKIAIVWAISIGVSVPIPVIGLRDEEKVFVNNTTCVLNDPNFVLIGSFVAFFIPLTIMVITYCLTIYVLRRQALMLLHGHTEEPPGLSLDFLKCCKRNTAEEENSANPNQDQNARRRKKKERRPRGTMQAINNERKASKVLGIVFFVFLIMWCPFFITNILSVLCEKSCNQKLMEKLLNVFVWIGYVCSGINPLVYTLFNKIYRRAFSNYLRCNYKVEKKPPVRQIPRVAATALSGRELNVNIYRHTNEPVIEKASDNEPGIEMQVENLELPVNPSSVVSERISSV
Procedure: [^3H]Mesulergine Binding to Serotonin 5-HT2C Receptor
Frozen membranes from stable CHO—K1 cell line expressing the human recombinant 5-HT2C receptor were used. For the binding assay, [^3H]Mesulergine (1 nM), receptor membrane (4 ug/well) and test compounds were added into 50 mM Tris-HCl (pH 7.7) buffer containing 0.1% ascorbic acid and 10 uM pargyline. Nonspecific binding was determined using 0.5 uM mianserin. The incubations were performed for 30 min at 37° C., and these were terminated by rapid filtration through Whatman GF/C glass fiber filters presoaked in 1% BSA. Then, the resultant was washed with cold 50 mM Tris-HCl buffer. The filter was covered with MeltiLex, sealed in a sample bag followed by drying in the microwave oven, and counted by MicroBeta Plus (Wallac, Finland). Nonspecific binding was determined in the presence of mianserin (0.5 uM). Competition binding studies were carried out with 7-8 varied concentrations of the test compounds run in duplicate tubes, and isotherms from three assays were calculated by computerized nonlinear regression analysis (GraphPad Prism Program, San Diego, USA) to yield IC50 values (Table 1).

Row | Structure (SMILES) | IC50
1 | CN1CCN(c2nc(Nc3ccccc3)c3cnn(C)c3n2)CC1 [Comp. 3, 1-methyl-6-(4-methylpiperazine-1-yl)-N-phenyl-1H-pyrazolo[3,4-d]pyrimidine-4-amine] | 86.9 nM
2 | CCN(CC)c1nc(Nc2ccc(C)c(C)c2)c2cnn(C)c2n1 [Comp. 4, N^4-(3,4-dimethylphenyl)-N^6,N^6-diethyl-1-methyl-1H-pyrazolo[3,4-d]pyrimidine-4,6-diamine] | 8490 nM
3 | CCN(CC)c1nc(Nc2ccc(Cl)cc2)c2cnn(C)c2n1 [Comp. 5, N^4-(4-chlorophenyl)-N^6,N^6-diethyl-1-methyl-1H-pyrazolo[3,4-d]pyrimidine-4,6-diamine] | 991 nM
4 | CN1CCN(c2nc(Nc3ccc(Cl)cc3)c3cnn(C)c3n2)CC1 [Comp. 6, N^6-(4-chlorophenyl)-1-methyl-6-(4-methylpiperazine-1-yl)-1H-pyrazolo[3,4-d]pyrimidine-4-amine] | 29.4 nM
5 | CCN(CC)c1nc(Nc2ccccc2C)c2cnn(C)c2n1 [Comp. 7, N^6,N^6-diethyl-1-methyl-N^4-o-tolyl-1H-pyrazolo[3,4-d]pyrimidine-4,6-diamine] | 242 nM
6 | CNc1nc(Nc2ccc(F)cc2)c2cnn(C)c2n1 [Comp. 8, N^4-(4-fluorophenyl)-N^6,1-dimethyl-1H-pyrazolo[3,4-d]pyrimidine-4,6-diamine] | 7790 nM
7 | CCNc1nc(Nc2ccc(F)cc2)c2cnn(C)c2n1 [Comp. 9, N^6-ethyl-N^4-(4-fluorophenyl)-1-methyl-1H-pyrazolo[3,4-d]pyrimidine-4,6-diamine] | > 1000 nM
8 | Cn1ncc2c(Nc3ccc(F)cc3)nc(NCCCO)nc21 [Comp. 10, 3-(4-(4-fluorophenylamino)-1-methyl-1H-pyrazolo[3,4-d]pyrimidine-6-ylamino)propane-1-ol] | > 1000 nM
9 | COCCNc1nc(Nc2ccc(F)cc2)c2cnn(C)c2n1 [Comp. 11, N^4-(4-fluorophenyl)-N^6-(2-methoxyethyl)-1-methyl-1H-pyrazolo[3,4-d]pyrimidine-4,6-diamine] | > 1000 nM
10 | COCCCNc1nc(Nc2ccc(F)cc2)c2cnn(C)c2n1 [Comp. 12, N^4-(4-fluorophenyl)-N^6-(3-methoxypropyl)-1-methyl-1H-pyrazolo[3,4-d]pyrimidine-4,6-diamine] | > 1000 nM
11 | C=CCNc1nc(Nc2ccc(F)cc2)c2cnn(C)c2n1 [Comp. 13, N^6-allyl-N^4-(4-fluorophenyl)-1-methyl-1H-pyrazolo[3,4-d]pyrimidine-4,6-diamine] | > 1000 nM
12 | Cn1ncc2c(Nc3ccc(F)cc3)nc(NC3CCCCC3)nc21 [Comp. 14, N^6-cyclohexyl-N^4-(4-fluorophenyl)-1-methyl-1H-pyrazolo[3,4-d]pyrimidine-4,6-diamine] | 5710 nM
13 | Cn1ncc2c(Nc3ccc(F)cc3)nc(NC3CCCC3)nc21 [Comp. 15, N^6-cyclopentyl-N^4-(4-fluorophenyl)-1-methyl-1H-pyrazolo[3,4-d]pyrimidine-4,6-diamine] | > 1000 nM
14 | Cn1ncc2c(Nc3ccc(F)cc3)nc(NCc3ccccc3)nc21 [Comp. 16, N^6-benzyl-N4-(4-fluorophenyl)-1-methyl-1H-pyrazolo[3,4-d]pyrimidine-4,6-diamine] | 2590 nM
15 | Cc1ccc(CNc2nc(Nc3ccc(F)cc3)c3cnn(C)c3n2)cc1 [Comp. 17, N^4-(4-fluorophenyl)-1-methyl-N^6-(4-methylbenzyl)-1H-pyrazolo[3,4-d]pyrimidine-4,6-diamine] | 5830 nM
16 | Cn1ncc2c(Nc3ccc(F)cc3)nc(NCCN3CCOCC3)nc21 [Comp. 18, N^4-(4-fluorophenyl)-1-methyl-N^6-(2-morpholinoethyl)-1H-pyrazolo[3,4-d]pyrimidine-4,6-diamine] | > 1000 nM

Row | Structure (SMILES) | IC50
17 | CN(C)c1nc(Nc2ccc(F)cc2)c2cnn(C)c2n1 [Comp. 19, N^4-(4-fluorophenyl)-N^6,N^6,1-trimethyl-1H-pyrazolo[3,4-d]pyrimidine-4,6-diamine] | 4030 nM
18 | CCN(CC)c1nc(Nc2ccc(F)cc2)c2cnn(C)c2n1 [Comp. 20, N^6,N^6-diethyl-N^4-(4-fluorophenyl)-1-methyl-1H-pyrazolo[3,4-d]pyrimidine-4,6-diamine] | 3310 nM
19 | Cn1ncc2c(Nc3ccc(F)cc3)nc(N3CCOCC3)nc21 [Comp. 21, N-(4-fluorophenyl)-1-methyl-6-morpholino-1H-pyrazolo[3,4-d]pyrimidine-4-amine] | 2070 nM
20 | Cn1ncc2c(Nc3ccc(F)cc3)nc(N3CCCCC3)nc21 [Comp. 22, N-(4-fluorophenyl)-1-methyl-6-(piperidine-1-yl)-1H-pyrazolo[3,4-d]pyrimidine-4-amine] | 1300 nM
21 | CC1CC(C)CN(c2nc(Nc3ccc(F)cc3)c3cnn(C)c3n2)C1 (stereo not drawn) [Comp. 23, 6-(3,5-dimethylpiperidine-1-yl)-N-(4-fluorophenyl)-1-methyl-1H-pyrazolo[3,4-d]pyrimidine-4-amine] | 3820 nM
22 | CC1CCN(c2nc(Nc3ccc(F)cc3)c3cnn(C)c3n2)CC1 [Comp. 24, N-(4-fluorophenyl)-1-methyl-6-(4-methylpiperidine-1-yl)-1H-pyrazolo[3,4-d]pyrimidine-4-amine] | 1500 nM
23 | CN1CCN(c2nc(Nc3ccc(F)cc3)c3cnn(C)c3n2)CC1 [Comp. 25, N-(4-fluorophenyl)-1-methyl-6-(4-methylpiperazine-1-yl)-1H-pyrazolo[3,4-d]pyrimidine-4-amine] | 85.8 nM
24 | Cn1ncc2c(Nc3ccc(F)cc3)nc(N3CCN(CCO)CC3)nc21 [Comp. 26, 2-(4-(4-(4-fluorophenylamino)-1-methyl-1H-pyrazolo[3,4-d]pyrimidine-6-yl)piperazine-1-yl)ethanol] | 494 nM
25 | Cn1ncc2c(Nc3ccc(F)cc3)nc(N3CCN(Cc4ccccc4)CC3)nc21 [Comp. 27, 6-(4-benzylpiperazine-1-yl)-N-(4-fluorophenyl)-1-methyl-1H-pyrazolo[3,4-d]pyrimidine-4-amine] | 836 nM
26 | Cn1ncc2c(Nc3ccc(F)cc3)nc(N3CCN(c4ccccc4)CC3)nc21 [Comp. 28, N-(4-fluorophenyl)-1-methyl-6-(4-phenylpiperazine-1-yl)-1H-pyrazolo[3,4-d]pyrimidine-4-amine] | 416 nM
27 | Cn1ncc2c(Nc3ccc(F)cc3)nc(N3CCN(c4ccc(F)cc4)CC3)nc21 [Comp. 29, N-(4-fluorophenyl)-6-(4-(4-fluorophenyl)piperazine-1-yl)-1-methyl-1H-pyrazolo[3,4-d]pyrimidine-4-amine] | 148 nM
28 | COc1ccccc1N1CCN(c2nc(Nc3ccc(F)cc3)c3cnn(C)c3n2)CC1 [Comp. 30, N-(4-fluorophenyl)-6-(4-(2-methoxyphenyl)piperazine-1-yl)-1-methyl-1H-pyrazolo[3,4-d]pyrimidine-4-amine] | 1720 nM
29 | CCN(CC)c1nc(Nc2cccc(OC)c2)c2cnn(C)c2n1 [Comp. 31, N^6,N^6-diethyl-N^4-(3-methoxyphenyl)-1-methyl-1H-pyrazolo[3,4-d]pyrimidine-4,6-diamine] | 5420 nM
30 | COc1cccc(Nc2nc(N3CCN(C)CC3)nc3c2cnn3C)c1 [Comp. 32, N-(3-methoxyphenyl)-1-methyl-6-(4-methylpiperazine-1-yl)-1H-pyrazolo[3,4-d]pyrimidine-4-amine] | 7.8 nM
31 | COc1cccc(Nc2nc(N3CCN(c4ccc(F)cc4)CC3)nc3c2cnn3C)c1 [Comp. 33, 6-(4-(4-fluorophenyl)piperazine-1-yl)-N-(3-methoxyphenyl)-1-methyl-1H-pyrazolo[3,4-d]pyrimidine-4-amine] | 1080 nM
32 | CN1CCN(c2nc(Nc3ccc(F)cc3)c3cnn(C)c3n2)CC1 [Comp. 35, N-(4-fluorophenyl)-1-methyl-6-(4-methylpiperazine-1-yl)-1H-pyrazolo[3,4-d]pyrimidine-4-amine] | 20.1 nM

Same assay, conditions: read-out: Affinity for 5-HT2C receptor (IC50)

Row | Structure (SMILES) | IC50
33 | COc1ccc(Nc2nc(N3CCN(c4ccc(F)cc4)CC3)nc3c2cnn3C)cc1 [Comp. 34, 6-(4-(4-fluorophenyl)piperazine-1-yl)-N-(4-methoxyphenyl)-1-methyl-1H-pyrazolo[3,4-d]pyrimidine-4-amine] | 1180 nM
